{"source": "paper PMC12610721", "about": "“The Action of Cannabidiol on Doxycycline Cytotoxicity in Human Cells—In Vitro Study” (Molecules, 2025)", "key": {"HEK-293 cells [1]": {"test_system": "HEK-293 cells", "assay": "cell membrane integrity (LDH leakage assay)", "description": "(§1) This innovative study evaluated the effects of cannabidiol (Cannabis sativa L.) on doxycycline-induced toxicity using three cell cultures: neural—SH-SY5Y, liver—HepG2, and kidney—HEK-293. […] A series of cytotoxicity assays included assessments of mitochondrial activity, lysosomal activity, cell membrane integrity, DNA synthesis, and cell proliferation. Based on the obtained results, IC50 values for doxycycline, both in monotherapy and in combination with CBD, were calculated, along with evaluations of ROS, death of cells, and morphology. The interaction between the drug and CBD was further analyzed by the combination index (CI).\n(§2) Cell membrane integrity was assessed by measuring lactate dehydrogenase (LDH) release, using a commercially available Cytotoxicity Detection Kit (LDH) (Roche Diagnostics, Warsaw, Poland). After incubation, 100 µL of culture medium (cell-free) from each well was transferred to the corresponding wells of an optically clear 96-well flat-bottom microplate, and 100 µL of reaction mixture was added to each well. The plate was then incubated for 30 min at room temperature in the dark. To stop the reaction, 50 µL of 1 M HCl was added to each well. Absorbance was measured at 492 nm using the Synergy 2 Multi-Mode Microplate Reader (BioTek® Instruments Inc., Winooski, VT, USA), with a blank as reference.\n(§3) To determine the types of interaction that occur when cells are exposed to combinations of DOX and CBD, the method established by Chou and Talalay was used in this study. The dose–effect relationships of the individual and combined test compounds were modeled biometrically using the Median-Effect Equation based on the Mass Action Law.fa/fu = (D/Dm)^m\n(§4) In this isobolographic analysis, the combination index (CI) is a quantitative parameter used to evaluate the type and strength of interactions between multiple compounds. For all combinations, CI values were calculated across a range of affected fractions (Fa) from 0.05 to 0.95 (corresponding to 5–95% toxicity). CI values of 0.9–1.1, <0.9, and >1.1 indicate additive, synergistic, and antagonistic effects, respectively.\n(§5) The study was conducted in three independent experiments (n = 3). […] Cytotoxicity data were analyzed using one-way analysis of variance (ANOVA), followed by Dunnett’s post hoc test to assess significance relative to the negative control. The half-maximal inhibitory concentration (IC50), representing the drug or drug–CBD mixture concentration required to inhibit cell viability by 50%, was calculated using GraphPad Prism 5.0. Statistical comparisons between IC50 values were performed using ANOVA followed by Tukey’s post hoc test. Differences were considered statistically significant at p ≤ 0.05."}, "HepG2 cells [2]": {"test_system": "HepG2 cells", "assay": "cell membrane integrity (LDH leakage assay)", "description": "as §1, §2, §3, §4, §5"}, "SH-SY5Y cells [3]": {"test_system": "SH-SY5Y cells", "assay": "cell membrane integrity (LDH leakage assay)", "conditions": "72 h", "description": "as §1, §2, §3, §4, §5"}, "HEK-293 cells [4]": {"test_system": "HEK-293 cells", "assay": "DNA synthesis (BrdU assay)", "conditions": "for doxycycline concentration that inhibited DNA synthesis: HEK-293, BrdU, 72 h", "description": "as §1\n(§6) Cell proliferation was evaluated using the BrdU assay (Cell Proliferation ELISA, BrdU [colorimetric], Roche, Switzerland) according to the manufacturer’s instructions. Briefly, BrdU was incorporated into newly synthesized DNA in place of thymidine during cell division. Incorporated BrdU was detected using an anti-BrdU antibody conjugated with peroxidase. The enzymatic reaction product was quantified by measuring absorbance. Absorbance was measured at 370 nm and 492 nm using the Synergy 2 Multi-Mode Microplate Reader (BioTek® Instruments Inc., Winooski, VT, USA), with a blank as reference.\nas §3, §4, §5"}, "HepG2 cells [5]": {"test_system": "HepG2 cells", "assay": "DNA synthesis (BrdU assay)", "description": "as §1, §6, §3, §4, §5"}, "SH-SY5Y cells [6]": {"test_system": "SH-SY5Y cells", "assay": "DNA synthesis (BrdU assay)", "conditions": "72 h", "description": "as §1, §6, §3, §4, §5"}, "HEK-293 cells [7]": {"test_system": "HEK-293 cells", "assay": "oxidative stress, ROS production (DCFH assay)", "assay_type": "cell-based, human", "description": "(§7) Intracellular ROS levels were evaluated using the redox-sensitive fluorescent dye DCFH-DA [87]. Briefly, the cells were incubated with 5 μM DCFH-DA for 1 h at 37 °C in the dark. Thereafter, the tested compounds were added at the concentrations used in the study. Cells treated with 500 μM hydrogen peroxide (H2O2) served as a positive control. After 72 h of incubation, the fluorescence of 2′,7′-dichlorofluorescein (DCF) was measured. Fluorescence was recorded at 485/530 nm using a fluorescence microplate reader (BioTek® Instruments Inc., Winooski, VT, USA)."}, "HepG2 cells [8]": {"test_system": "HepG2 cells", "assay": "oxidative stress, ROS production (DCFH assay)", "assay_type": "cell-based, human", "conditions": "HepG2, DCFH-DA, 72 h", "description": "as §7"}, "SH-SY5Y cells [9]": {"test_system": "SH-SY5Y cells", "assay": "oxidative stress, ROS production (DCFH assay)", "assay_type": "cell-based, human", "conditions": "DCFH-DA, 72 h", "description": "as §7"}, "HEK-293 cells [10]": {"test_system": "HEK-293 cells", "assay": "cellular morphology (May–Grünwald–Giemsa staining)", "assay_type": "cell-based, human", "conditions": "HEK-293, 72 h", "description": "(§8) This method was used to illustrate changes in cell morphology under the influence of the tested compounds. The staining was performed on Lab-Tek plates (Nunc, NY, USA). Cells at a density of 1 × 10^5 cells/mL were used. After 72 h of incubation with or without the tested drugs (control), the culture medium was removed, and the cells were stained with 1 mL of May–Grünwald dye for 3 min at room temperature. Then, 1 mL of deionized water was added to each plate. After another 3 min of incubation at room temperature, the liquid was removed. All plates were rinsed with deionized water, and the cells were subsequently stained with Giemsa dye (dilution 1:20) for 30 min at room temperature. After staining, the dye was removed, the wells were rinsed with 1 mL of deionized water, and the plates were allowed to dry. Images were captured using a light microscope (Zeiss, Oberkochen, Germany)."}, "HepG2 cells [11]": {"test_system": "HepG2 cells", "assay": "cellular morphology (May–Grünwald–Giemsa staining)", "assay_type": "cell-based, human", "conditions": "HepG2, 72 h", "description": "as §8"}, "SH-SY5Y cells [12]": {"test_system": "SH-SY5Y cells", "assay": "cellular morphology (May–Grünwald–Giemsa staining)", "assay_type": "cell-based, human", "conditions": "72 h", "description": "as §8"}, "[13]": {"test_system": "rat neuronal cell line PC12", "set-up": "method as in PMID 33798505", "conditions": "PC12, 24 h, 20 µM (10.26 µg/mL); cited from earlier work"}, "[14]": {"test_system": "SH-SY5Y human neuroblastoma cells", "set-up": "method as in PMID 33429042", "conditions": "24 h, 4 ng/mL to 4.4 µg/mL; cited from earlier work"}, "SH-SY5Y cells [15]": {"test_system": "SH-SY5Y cells", "set-up": "method as in earlier work", "conditions": "48 h exposure, cited from earlier work"}}, "note": "Where two headings read alike, the source gives them in different places.", "data": [{"smiles": "C[C@H]1c2cccc(O)c2C(=O)C2=C(O)[C@]3(O)C(=O)C(C(N)=O)=C(O)[C@@H](N(C)C)[C@@H]3[C@@H](O)[C@@H]21", "note": "[DOX, doxycycline hyclate]", "values": [{"measurement": "doxycycline concentration that caused degradation of the cell membrane", "setting": "HEK-293 cells [1]; HEK-293, LDH, 72 h", "result": 6.25, "unit": "µg/mL"}, {"measurement": "IC50", "setting": "HEK-293 cells [1]; Homo sapiens, HEK293, 72 h", "result": "30.4 ± 2.7", "unit": "µg/mL"}, {"measurement": "doxycycline concentration that disrupted membrane integrity", "setting": "HepG2 cells [2]; HepG2, LDH, 72 h", "result": 50, "unit": "µg/mL"}, {"measurement": "IC50", "setting": "HepG2 cells [2]; Homo sapiens, HepG2, 72 h", "result": "> 200", "unit": "µg/mL"}, {"measurement": "IC50", "setting": "SH-SY5Y cells [3]; Homo sapiens", "result": "149 ± 6.5", "unit": "µg/mL"}, {"measurement": "doxycycline concentration that induced cell membrane breakdown", "setting": "SH-SY5Y cells [3]; LDH", "result": 12.5, "unit": "µg/mL"}, {"measurement": "doxycycline concentration that inhibited DNA synthesis", "setting": "HEK-293 cells [4]", "result": 3.12, "unit": "µg/mL"}, {"measurement": "doxycycline concentration that inhibited DNA synthesis", "setting": "HEK-293 cells [4]; listed as doxycycline", "result": 3.125, "unit": "µg/mL"}, {"measurement": "IC50", "setting": "HEK-293 cells [4]; Homo sapiens, HEK293, 72 h", "result": "8.9 ± 0.1", "unit": "µg/mL"}, {"measurement": "doxycycline concentration that inhibited DNA synthesis", "setting": "HepG2 cells [5]; HepG2, BrdU, 72 h", "result": 12.5, "unit": "µg/mL"}, {"measurement": "IC50", "setting": "HepG2 cells [5]; Homo sapiens, HepG2, 72 h", "result": "24 ± 0.4", "unit": "µg/mL"}, {"measurement": "doxycycline concentration that inhibited DNA synthesis", "setting": "SH-SY5Y cells [6]; BrdU", "result": 12.5, "unit": "µg/mL"}, {"measurement": "IC50", "setting": "SH-SY5Y cells [6]; Homo sapiens", "result": "15.6 ± 0.7", "unit": "µg/mL"}, {"measurement": "doxycycline concentration from which free radical (ROS) production increased", "setting": "HEK-293 cells [7]", "result": "lowest tested concentration"}, {"measurement": "doxycycline concentration at which free radical (ROS) production increased significantly", "setting": "HepG2 cells [8]", "result": 12.5, "unit": "µg/mL"}, {"measurement": "doxycycline concentration from which free radical (ROS) production increased", "setting": "SH-SY5Y cells [9]", "result": 1.56, "unit": "µg/mL"}, {"measurement": "morphological changes", "setting": "HEK-293 cells [10]", "result": "cell aggregation followed by detachment from the adhesive surface"}, {"measurement": "morphological changes", "setting": "HepG2 cells [11]", "result": "cell aggregation followed by detachment from the adhesive surface"}, {"measurement": "morphological changes", "setting": "SH-SY5Y cells [12]", "result": "cell aggregation followed by detachment from the adhesive surface"}, {"measurement": "neurotoxicity", "setting": "[13]", "result": "no signs of neurotoxicity"}, {"measurement": "effect on production of reactive oxygen species (ROS)", "setting": "[14]", "result": "protective effect"}, {"measurement": "IC50", "setting": "SH-SY5Y cells [15]; converted value in brackets", "result": 1.9, "unit": "µg/mL"}, {"measurement": "IC50", "setting": "SH-SY5Y cells [15]; read-out: IC50", "result": "3.7 ± 0.1", "unit": "µM"}]}]}
